Tests used:
Format in all cases: in vivo
Ctenocephalides felis [1] = test: Ctenocephalides felis in-vitro contact test adult cat flea; conditions: 5 μg/cm^2 (=500 g/ha), after 48 hours
Protocol: Ctenocephalides felis—In-Vitro Contact Test Adult Cat Flea
9 mg compound is solved in 1 ml acetone and diluted with acetone to the desired concentration. 250 μl of the test solution is filled in 25 ml glass test tubes and homogeneously distributed on the inner walls by rotation and tilting on a shaking device (2 h at 30 rpm). With a compound concentration of 900 ppm, an inner surface of 44.7 cm^2 and a homogeneous distribution, a dose of 5 μg/cm^2 is achieved.
After the solvent has evaporated, each test tube is filled with 5-10 adult cat fleas (Ctenocephalides felis), closed with a perforated lid and incubated in a lying position at room temperature and relative humidity. After 48 hours efficacy is determined. The fleas are patted on the ground of the tubes and are incubated on a heating plate at 45-50° C. for at most 5 minutes. Immotile or uncoordinated moving fleas, which are not able to escape the heat by climbing upwards, are marked as dead or moribund.
An efficacy of 100% means all fleas are dead or moribund; 0% means no fleas are dead or moribund.

Ctenocephalides felis [2] = test: Ctenocephalides felis oral test; conditions: Ctenocephalides felis, in Bos taurus, po, 48 h
Protocol: Ctenocephalides felis—Oral Test
Solvent: dimethyl sulfoxide
To produce a suitable preparation of active compound, 10 mg of active compound are dissolved in 0.5 ml solvent, and the concentrate is diluted with cattle blood to the desired concentration.
Approximately 20 adult unfed cat fleas (Ctenocephalides felis) are placed in flea chambers. The blood chamber, sealed with parafilm on the bottom, are filled with cattle blood supplied with compound solution and placed on the gauze covered top of the flea chamber, so that the fleas are able to suck the blood. The blood chamber is heated to 37° C. whereas the flea chamber is kept at room temperature.
After 2 days mortality in % is determined. 100% means all the fleas have been killed; 0% means none of the fleas have been killed.

Diabrotica balteata = Diabrotica balteata spray test; conditions: 160 μg/well, wheat seeds, after 7 days; for pest or weed control at 160 µg/disc, 160 µg/well: Diabrotica balteata, 168 h, read-out: efficacy (seedlings grown)
Protocol: Diabrotica balteata—Spray Test
(§1) To produce a suitable preparation of active compound, 1 part by weight of active compound is mixed with the stated amount of solvent, and the concentrate is diluted with water, containing an emulsifier concentration of 1000 ppm, to the desired concentration. Further test concentrations are prepared by dilution with emulsifier containing water.
Soaked wheat seeds (Triticum aestivum) are placed in a multiple well plate filled with agar and some water and are incubated for 1 day to germinate (5 seeds per well). The germinated wheat seeds are sprayed with a test solution containing the desired concentration of the active ingredient. Afterwards each unit is infected with 10-20 larvae of the banded cucumber beetle (Diabrotica balteata).
After 7 days efficacy in % is determined. 100% means all the seedlings have grown up like in the untreated, uninfected control; 0% means none of the seedlings have grown.

Myzus persicae = Myzus persicae oral test; conditions: 120 h
Protocol: To produce a suitable preparation of active compound, 1 part by weight of active compound is mixed with the stated amount of solvent, and the concentrate is diluted with water to the desired concentration.
50 μl compound solution is filled in microtiter plates and 150 μl IPL41 insect medium (33%+15% sugar) is added to obtain a total volume of 200 μl per well. Afterwards the plates are sealed with parafilm through which a mixed population of the green peach aphid (Myzus persicae) can suck on the compound preparation.
After 5 days mortality in % is determined. 100% means all aphids have been killed and 0% means none of the aphids have been killed.

Nezara viridula = Nezara viridula spray test; conditions: in Hordeum vulgare, 96 h
Protocol: Nezara viridula—Spray Test
as §1
Barley plants (Hordeum vulgare) infested with larvae of the southern green stink bug (Nezara viridula) are sprayed with a test solution containing the desired concentration of the active ingredient.
After 4 days mortality in % is determined. 100% means all the stink bugs have been killed; 0% means none of the stink bugs have been killed.

[3] = tested on: Culex quinquefasciatus strain P00; test: Culex quinquefasciatus test (CULXFA surface treatment & contact assay); conditions: surface concentration 20 mg/m^2, 30 minutes exposure, 24 hours after contact, read-out: efficacy (mortality)
Protocol: Culex quinquefasciatus Test (CULXFA Surface Treatment & Contact Assay)
Solvent: Aceton+2000 ppm rapeseed oil methyl ester (RME)
In order to produce a sufficient, active ingredient containing solution it is necessary to solve the test-compound in the solvent-mix (Acetone at 2 mg/ml/RME 2000 ppm). This solution is pipetted onto a glazed tile and after evaporation of the Acetone, adult mosquitoes of the species Culex quinquefasciatus strain P00 are placed onto the dried surface. The exposure time is 30 minutes.
Mortality in percent (%) is determined 24 hours after contact to the treated surface. 100% mortality means that all test-insects are dead, whereas 0% means that not a single insect died.

SMILES | pest or weed control at 160 µg/disc, 160 µg/well (Diabrotica balteata) | efficacy (seedlings grown) (Diabrotica balteata) | also measured
CC(c1ncnn1-c1ncccn1)N(CC1CC1)C(=O)c1cc(Cl)cc(C(=O)NC2CC2)c1 (stereo not shown) [Example I-007] | 100% |  | pest or weed control at 5 µg/cm2, 5 µg/cm2 (Ctenocephalides felis [1]; Ctenocephalides felis, read-out: efficacy (fleas dead or moribund)): 100%; mortality at 100 ppm (Ctenocephalides felis [2]): 100%; mortality at 4 ppm (Myzus persicae): 100%; mortality at 20 ppm (Myzus persicae): 100%; mortality at 500 g/ha (Nezara viridula): 100%
CC(c1ncnn1-c1ncccn1)N(CC1CC1)C(=O)Cc1cc(Cl)cc(C(F)(F)F)c1 (stereo not shown) [Example I-011] | 100% |  | 
CC(c1ncnn1-c1ncccn1)N(CC1CC1)C(=O)c1cc(Cl)ccc1Cl (stereo not shown) [Example I-014] | 100% |  | 
CC(NC(=O)c1cc(Cl)cc(C2CC2)c1)c1ncnn1-c1ccc(C#N)cn1 (stereo not shown) [Example I-054] |  | 100% | efficacy (fleas dead or moribund) (Ctenocephalides felis [1]): 80%
COC[C@H](NC(=O)c1cc(Cl)cc(S(C)(=O)=O)c1)c1ncnn1-c1ccc(C#N)cn1 [Example I-058, 3-chloro-N-{(1R)-1-[1-(5-cyanopyridin-2-yl)-1H-1,2,4-triazol-5-yl]-2-methoxyethyl}-5-(methylsulfonyl)benzamide] |  |  | mortality at 100 ppm (Ctenocephalides felis [2]): 100%
C[C@@H](NC(=O)c1cc(Cl)cc(SC(C)(C)C)c1)c1ncnn1-c1ncccn1 [Example I-060] | 100% |  | mortality at 100 ppm (Ctenocephalides felis [2]): 100%; mortality at 500 g/ha (Nezara viridula): 100%
CC(NC(=O)c1cc(Cl)cc(S(=O)(=O)C(F)(F)F)c1)c1ncnn1-c1ncc(Cl)cc1F (stereo not shown) [Example I-079] |  | 100% | 
C[C@H](NC(=O)c1cc(Cl)cc(NS(=O)(=O)c2ccccc2)c1)c1ncnn1-c1ncccn1 [Example I-086, 3-chloro-5-[(phenylsulfonyl)amino]-N-{(1S)-1-[1-(pyrimidin-2-yl)-1H-1,2,4-triazol-5-yl]ethyl}benzamide] |  |  | mortality at 4 ppm (Myzus persicae): 90%
C[C@@H](NC(=O)c1cc(Cl)cc(NC(=O)C2CC2)c1)c1ncnn1-c1ncccn1 [Example I-088] |  |  | mortality at 100 ppm (Ctenocephalides felis [2]): 100%
CC(NC(=O)c1cc(Cl)cc(S(C)(=O)=O)c1)c1nc(C(F)(F)F)nn1-c1ccc(Cl)cn1 (stereo not shown) [Example I-090] |  | 100% | 
CC(NC(=O)c1cc(Cl)cc(S(=O)(=O)C(F)(F)F)c1)c1ncnn1-c1ncc(C(F)(F)F)cn1 (stereo not shown) [Example I-097] |  | 100% | 
CC(NC(=O)c1csc(Cl)c1)c1ncnn1-c1ncc(C(F)(F)F)cn1 (stereo not shown) [Example I-098] |  | 100% | efficacy (fleas dead or moribund) (Ctenocephalides felis [1]): 90%
CC(NC(=O)c1cc(C(F)(F)F)cc(Cl)c1F)c1ncnn1-c1ncccn1 (stereo not shown) [Example I-104] |  | 100% | 
C[C@@H](NC(=O)c1cc(C2CC2)on1)c1ncnn1-c1ncccn1 [Example I-107] | 100% |  | mortality at 500 g/ha (Nezara viridula): 100%; mortality at 20 mg/m2 [3]: 80 to 100%
Cc1cnc(-n2ncnc2[C@@H](C)NC(=O)c2csc(Cl)c2)nc1 [Example I-109] |  |  | mortality at 500 g/ha (Nezara viridula): 90%
CC(NC(=O)c1cccc(-c2ccc(OC(F)(F)F)cc2)c1)c1ncnn1-c1ncccn1 (stereo not shown) [Example I-115] | 100% |  | 
C[C@H](NC(=O)c1cc(Cl)cc(S(C)(=O)=O)c1)c1ncnn1-c1cnc(C#N)cn1 [Example I-117] |  | 100% | 
C[C@H](NC(=O)c1cc(Cl)cc(S(=O)(=O)C(F)(F)F)c1)c1ncnn1-c1ccc(F)cn1 [Example I-118] |  | 100% | 
C[C@@H](c1ncnn1-c1ccc(C#N)cn1)N(CC1CC1)C(=O)c1cc(F)cc(C2CC2)c1 [Example I-121] |  | 100% | 
C[C@H](NC(=O)c1cc(Br)cc(C(C)(C)C)c1)c1ncnn1-c1ncccn1 [Example I-125] |  | 100% | 

Source: patent US12187705B2, “Heteroaryl-triazole and heteroaryl-tetrazole compounds as pesticides” (Bayer Aktiengesellschaft, priority 2018, dated 2025)
